In ChEMBL document CHEMBL2069256, “Development of Toxoplasma gondii calcium-dependent protein kinase 1 (TgCDPK1) inhibitors with potent anti-toxoplasma activity” (J Med Chem, 2012):
Each block holds one molecule with its values, some of them ahead of it.

Key:
Toxoplasma gondii [1] = assay: microbe, parasite or virus in culture; conditions: 44 h
[2] = molecular target: Mitogen-activated protein kinase 14 (Homo sapiens, UniProt Q16539); assay: Inhibition of human p38alpha using myelin basic protein as substrate after 180 mins
[3] = molecular target: Epidermal growth factor receptor (Homo sapiens, UniProt P00533); assay: Inhibition of human EGFR using poly glu-Tyr as substrate after 30 mins
Ephrin type-A receptor 3 = molecular target: T1, Ephrin type-A receptor 3 (Homo sapiens, UniProt P29320); assay: Inhibition of human EPHA3 using myelin basic protein as substrate after 120 mins
T1 sequence (P29320 whole entry): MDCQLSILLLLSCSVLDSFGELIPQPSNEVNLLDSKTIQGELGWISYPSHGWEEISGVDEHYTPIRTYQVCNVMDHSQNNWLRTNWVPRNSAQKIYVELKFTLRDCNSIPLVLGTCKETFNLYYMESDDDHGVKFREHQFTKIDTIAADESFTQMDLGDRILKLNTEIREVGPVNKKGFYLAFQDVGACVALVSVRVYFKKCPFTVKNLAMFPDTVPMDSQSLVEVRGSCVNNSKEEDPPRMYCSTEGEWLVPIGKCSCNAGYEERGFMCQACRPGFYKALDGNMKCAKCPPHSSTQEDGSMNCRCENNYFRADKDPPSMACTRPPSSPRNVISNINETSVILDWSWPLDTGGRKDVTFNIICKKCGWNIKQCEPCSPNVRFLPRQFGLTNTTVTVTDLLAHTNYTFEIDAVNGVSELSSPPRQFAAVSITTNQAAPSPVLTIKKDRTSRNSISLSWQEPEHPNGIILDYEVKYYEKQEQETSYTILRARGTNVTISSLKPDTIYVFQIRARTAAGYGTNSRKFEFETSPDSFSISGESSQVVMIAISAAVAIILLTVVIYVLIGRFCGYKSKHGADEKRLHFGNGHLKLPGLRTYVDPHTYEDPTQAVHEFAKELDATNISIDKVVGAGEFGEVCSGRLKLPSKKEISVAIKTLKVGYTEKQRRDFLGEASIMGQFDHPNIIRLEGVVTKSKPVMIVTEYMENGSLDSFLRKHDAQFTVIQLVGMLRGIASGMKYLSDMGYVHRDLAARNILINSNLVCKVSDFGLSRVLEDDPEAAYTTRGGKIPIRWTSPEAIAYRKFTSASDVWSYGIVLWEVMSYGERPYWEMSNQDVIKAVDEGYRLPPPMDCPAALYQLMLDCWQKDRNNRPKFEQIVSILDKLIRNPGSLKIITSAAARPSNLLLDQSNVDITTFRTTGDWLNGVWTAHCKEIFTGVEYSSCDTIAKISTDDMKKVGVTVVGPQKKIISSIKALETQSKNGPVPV

[4] = molecular target: Tyrosine-protein kinase ABL1 (Homo sapiens, UniProt P00519); assay: Inhibition of human ABL using EAIYAAPFAKKK-OH as substrate by phosphor imaging method
[5] = Cytotoxicity against human CRL8155 cells assessed as inhibition of cell growth after 48 to 72 hrs by alamar blue assay; assay type: cell-based
[6] = molecular target: Tyrosine-protein kinase CSK (Homo sapiens, UniProt P41240); assay: Inhibition of human CSK using Ac-KKKKEEIYFFF-OH as substrate after 180 mins
HL-60 = assay: Cytotoxicity against human HL60 cells assessed as inhibition of cell growth after 48 to 72 hrs by alamar blue assay; assay type: cell-based
[7] = molecular target: Tyrosine-protein kinase Lck (Homo sapiens, UniProt P06239); assay: Inhibition of human LCK using Ac-EIYGEFKKK-OH as substrate after 60 mins
[8] = molecular target: Proto-oncogene tyrosine-protein kinase Src (Homo sapiens, UniProt P12931)
[9] = Inhibition of Toxoplasma gondii CDPK1 using syntide-2 peptide as substrate after 90 mins by kinase glo-luciferase assay
Toxoplasma gondii [10] = assay: Antiparasitic activity against Toxoplasma gondii expressing CDPK1 Gly128Met mutant; assay type: functional, organism-based

SMILES: CC(C)(C)n1nc(-c2ccccc2)c2c(N)ncnc21
EC50 (Toxoplasma gondii [1]): 230 nM

SMILES: CCOc1ccc2cc(-c3nn(C[C@H](C(C)C)N(C)C)c4ncnc(N)c34)ccc2c1
EC50 (Toxoplasma gondii [1]): 960 nM

SMILES: COc1ccc2cc(-c3nn(C(C)(C)C)c4ncnc(N)c34)ccc2c1
EC50 (Toxoplasma gondii [1]): 10 nM

SMILES: CCOc1ccc2cc(-c3nn(C4CCN(C)CC4)c4ncnc(N)c34)ccc2c1
IC50 [2]: > 10000 nM
IC50 [3]: > 10000 nM
IC50 (Ephrin type-A receptor 3): > 10000 nM
IC50 [4]: > 10000 nM
EC50 (Toxoplasma gondii [1]): 50 nM
GI50 [5]: > 10000 nM
IC50 [6]: 10000 nM
GI50 (HL-60): > 10000 nM
IC50 [7]: 120 nM

IC50 [2]: > 10000 nM
IC50 [3]: > 10000 nM
IC50 (Ephrin type-A receptor 3): > 10000 nM
IC50 [4]: > 10000 nM
IC50 [8]: > 10000 nM
IC50 [6]: > 10000 nM
IC50 [7]: 620 nM
SMILES: COc1ccc2cc(-c3nn(CC4CCNCC4)c4ncnc(N)c34)ccc2c1
GI50 [5]: > 10000 nM
GI50 (HL-60): > 10000 nM

SMILES: Nc1ncnc2c1c(-c1ccc3ccccc3c1)nn2CC1CCNCC1
EC50 (Toxoplasma gondii [1]): 630 nM

SMILES: Cc1cccc(-c2nn(C(C)C)c3ncnc(N)c23)c1
EC50 (Toxoplasma gondii [1]): 510 nM

SMILES: CC(C)n1nc(-c2ccc3cc(OCc4ccccc4)ccc3c2)c2c(N)ncnc21
EC50 (Toxoplasma gondii [1]): 3.3 nM

SMILES: COc1ccc2cc(-c3nn(C(C)C)c4ncnc(N)c34)ccc2c1
IC50 [2]: > 10000 nM
IC50 [3]: 510 nM
IC50 (Ephrin type-A receptor 3): 1600 nM
IC50 [8]: 670 nM
GI50 [5]: > 10000 nM
IC50 [6]: 2600 nM
GI50 (HL-60): > 10000 nM
IC50 [7]: 79 nM

IC50 [8]: > 10000 nM
SMILES: Nc1ncnc2c1c(Cc1cccc3ccccc13)nn2CC1CCNCC1

IC50 [3]: 700 nM
IC50 (Ephrin type-A receptor 3): 3700 nM
IC50 [6]: 3100 nM
IC50 [7]: 52 nM
SMILES: CCOc1ccc2cc(-c3nn(C(C)C)c4ncnc(N)c34)ccc2c1

SMILES: Nc1ncnc2c1c(-c1ccc3cc(OCc4ccccc4)ccc3c1)nn2CC1CCNCC1
EC50 (Toxoplasma gondii [1]): 130 nM

SMILES: CCOc1ccc2cc(-c3nn(C[C@H]4CCCN4)c4ncnc(N)c34)ccc2c1
EC50 (Toxoplasma gondii [1]): 970 nM

SMILES: CC(C)(C)n1ncc2c(N)ncnc21
EC50 (Toxoplasma gondii [1]): > 6250 nM
IC50 [8]: > 10000 nM

SMILES: Cn1ncc2cc(-c3nn(CC4CCNCC4)c4ncnc(N)c34)ccc21
EC50 (Toxoplasma gondii [1]): > 6250 nM

SMILES: Nc1ncnc2c1c(-c1ccc3cc(OCc4cccc(Cl)c4)ccc3c1)nn2CC1CCNCC1
EC50 (Toxoplasma gondii [1]): 100 nM

SMILES: Cn1ncc2cc(-c3nn(C(C)(C)C)c4ncnc(N)c34)ccc21
EC50 (Toxoplasma gondii [1]): 120 nM

SMILES: CCCN1CCC(CCn2nc(-c3ccc4cc(OCC)ccc4c3)c3c(N)ncnc32)CC1
EC50 (Toxoplasma gondii [1]): 180 nM

SMILES: C=CCOc1ccc2cc(-c3nn(C(C)C)c4ncnc(N)c34)ccc2c1
EC50 (Toxoplasma gondii [1]): 10 nM

SMILES: CC(C)n1nc(-c2cc3c(Cl)cccc3[nH]2)c2c(N)ncnc21
IC50 [8]: 1200 nM

SMILES: CC(C)n1nc(-c2ccc3ccccc3c2)c2c(N)ncnc21
EC50 (Toxoplasma gondii [1]): 72 nM

SMILES: CCOc1ccc2cc(-c3nn(CC4CCN(CC)CC4)c4ncnc(N)c34)ccc2c1
EC50 (Toxoplasma gondii [1]): 330 nM

IC50 [8]: > 10000 nM
SMILES: CCOc1ccc2cc(-c3nn(CC4CCN(C(C)=O)CC4)c4ncnc(N)c34)ccc2c1
IC50 [9]: 11 nM

SMILES: CCOc1ccc2cc(-c3nn(CC4CCN(C)CC4)c4ncnc(N)c34)ccc2c1
IC50 [2]: > 10000 nM
IC50 [3]: > 10000 nM
IC50 (Ephrin type-A receptor 3): > 10000 nM
IC50 [9]: 2.9 nM
IC50 [4]: 4600 nM
EC50 (Toxoplasma gondii [1]): 140 nM
IC50 [8]: > 10000 nM
EC50 (Toxoplasma gondii [10]): 1000 nM
GI50 [5]: > 10000 nM
IC50 [6]: > 10000 nM
GI50 (HL-60): > 10000 nM
IC50 [7]: 3300 nM

SMILES: CCOc1ccc2cc(-c3nn(CCC4CCN(C)CC4)c4ncnc(N)c34)ccc2c1
EC50 (Toxoplasma gondii [1]): 49 nM

SMILES: COc1ccc(-c2nn(C(C)(C)C)c3ncnc(N)c23)cc1C
EC50 (Toxoplasma gondii [1]): 3 nM

SMILES: CC(C)(C)n1nc(-c2ccc3ncccc3c2)c2c(N)ncnc21
EC50 (Toxoplasma gondii [1]): 110 nM

SMILES: Nc1ncnc2c1c(-c1ccc3cc(OCc4ccccc4Cl)ccc3c1)nn2CC1CCNCC1
EC50 (Toxoplasma gondii [1]): 1100 nM

SMILES: CCOc1ccc2cc(-c3nn(C[C@H]4CCCN4C)c4ncnc(N)c34)ccc2c1
EC50 (Toxoplasma gondii [1]): 860 nM

SMILES: CCOc1ccc2cc(-c3nn(CCC4CCNCC4)c4ncnc(N)c34)ccc2c1
EC50 (Toxoplasma gondii [1]): 140 nM

SMILES: Cn1ccc2cc(-c3nn(C(C)(C)C)c4ncnc(N)c34)ccc21
EC50 (Toxoplasma gondii [1]): 44 nM

SMILES: CCCN1CCC(n2nc(-c3ccc4cc(OCC)ccc4c3)c3c(N)ncnc32)CC1
EC50 (Toxoplasma gondii [1]): 160 nM

SMILES: CCCCOc1ccc2cc(-c3nn(CC4CCNCC4)c4ncnc(N)c34)ccc2c1
EC50 (Toxoplasma gondii [1]): 60 nM
